What all share (assay type): cell-based
Assay [1] relates to Gi proteins with MO, MT2 or β1 integrin receptors. Briefly: Immunoprecipitation/Western blot: interaction of Gi proteins with GPCR and β1 integrin in MC3T3-E1 cells. The procedure: MC3T3-E1 cells were treated with PBS or rOPN (0.5 μg/ml) then the whole cell proteins (1 mg) were incubated with anti-MOR (Abcam Toronto, ON, Canada), anti-MT2 or anti-[…] (Santa Cruz Biotechnology), plus protein G beads for immunoprecipitation (IP) at 4° C. overnight. Purified proteins were loaded on 10% gel after IP, then, processed for gel transferring to PVDF membrane and 5% BSA blocking. Membranes were exposed to antibodies specific for Gi1, Gi2, Gi3, MOR, MT2 and β1 integrin at 4° C. overnight and, subsequently, treated with secondary antibody at room temperature for 1 h. Bands were visualized using SuperSignal™ chemiluminescent (Pierce, Rockford, Ill.) and quantified by densitometric scanning.
It is notable that when different receptors signal through the same subfamily of G proteins, they share the same limited pool of G proteins. Therefore, if OPN enhances the recruitment of Gi proteins in the β1 integrin complex, reduction in the amount of Gi proteins in GiPCR complex would be expected. To evaluate this possibility, cells lysates were immunoprecipitated with antibodies against MO, MT2 or β1 integrin receptors, and the presence of Gi proteins in each precipitate was examined by Western blot using antibodies specific for Gi1, Gi2 or Gi3 isoform. […]
(In general: In western blotting, separated proteins are transferred to a membrane and probed.)

The next assay relates to Gi1, Gi2, Gi3 proteins. Briefly: Immunoprecipitation/Western blot: phosphorylation of Gi proteins in MC3T3-E1 cells. The following applies: rOPN vs PBS. The procedure:
Given that the defective GiPCR signaling associated with idiopathic scoliosis has causatively been related to increased phosphorylation of Gi proteins (Moreau et al., 2004), it was of interest to examined whether OPN influences the phosphorylation status of Gi proteins. Accordingly, MC3T3-E1 cells were treated with rOPN, then cell lysates were immunoprecipitated with antibodies against Gi1, Gi2 or Gi3 protein isoforms, and the phosphorylation level was examined by Western blot using anti-phospho serine/threonine or anti-tyrosine antibodies. […] However, band density was higher in OPN-treated cells.
To support the involvement of α5β1 integrin in this process, cells were pre-treated with antibody against α5β1 integrin prior to rOPN treatment.
Cell extracts prepared from MC3T3-E1 that had been treated with rOPN in the presence or absence of an inhibitor specific for each kinase were subjected to immunoprecipitation and Western blot analysis. […] However, both serine and tyrosine phosphorylation were attenuated by inhibitors of FAK (FAK inhibitor-14), Scr (PP2), CaMKII (KN93), PI3K (wortmannin-data not shown), MEK (PD98059), ERK1/2 (FR180204), JNK (SP60125) and P38 (SB203580).

For the next assay, the system named is Gs protein. As to the kind of experiment: Immunoprecipitation/Western blot: Gs protein tyrosine phosphorylation and association with receptors in MC3T3-E1 cells. An excerpt: (§1) Taken into account these considerations and having observed that genetic deletion of OPN inversely influenced response to Gi and Gs stimulation (FIG. 1), it was of interest to examine the effect of OPN on the functional and phosphorylation status of Gs protein and on its interaction with receptors. For this purpose, cells were subjected to isoproterenol and desmopressin in the presence of rOPN or PBS. As expected, response to isoproterenol was higher in rOPN than in PBS-treated cells.

Another assay has as its system GiPCR signaling. Briefly: CDS integrated response to GiPCR ligands in MC3T3-E1 osteoblastic cell line. The following applies: MC3T3-E1 cells treated with rOPN prior to stimulation. The procedure:
The functional evaluation of Gi, Gs and Gq proteins was assessed by CDS assays using osteoblasts cells derived from C57Bl/6j WT and C57Bl/6j OPN^−/− mice (bipedal and quadrupedal) using CellKey™ apparatus, as previously described (Akoume et al., 2010, and WO 2010/040234 to Moreau et al.).
MC3T3-E1 cells were used to check the effect of the knockdown of OPN and its receptors. MC3T3-E1 osteoblasts cells were transiently transfected in serum-free medium, using Lipofectamine™ RNAiMAX reagent (Invitrogen) according to the manufacturer's instructions and functional experiments were performed 48 h post transfection. The sequence of RNA oligonucleotides used for the knockdown of different genes are, ssp1 (encodes OPN) (CCACAGCCACAAGCAGUCCAGAUUA (SEQ ID NO: 9)), integrin β1 (CCUAAGUCAGCAGUAGGAACAUUAU (SEQ ID NO: 10)), integrin β3 (CCUCCAGCUCAUUGUUGAUGCUUAU (SEQ ID NO: 11)), integrin α5 (CCGAGUACCUGAUCAACCUGGUUCA (SEQ ID NO: 12)), integrin α8 (GAGAUGAAACUGAAUUCCGAGAUAA (SEQ ID NO: 13)), integrin αv (GACUGUUGAGUAUGCUCCAUGUAGA (SEQ ID NO: 14 and CD44 (GAACAAGGAGUCGUCAGAAACUCCA (SEQ ID NO: 15)). Two other siRNAs against integrin α5 were tested (UCCACCAUGUCUAUGAGCUCAUCAA (SEQ ID NO:16) and UCAGGAGCAGAUUGCAGAAUCUUAU (SEQ ID NO:17)).
To further investigate the role of OPN in Gi protein-mediated receptor signaling, several lines of experiments were performed using MC3T3-E1 osteoblastic cell line. Since these cells express OPN, was first examined whether depletion of OPN by siRNA influences the capacity of GiPCR ligands to induce cell signaling as measured by CDS in MC3T3-E1 cells. […] Similar results were obtained when cells were stimulated with oxymethazolin. […] To confirm this hypothesis, cells were treated with exogenous recombinant OPN (rOPN) prior to DAMGO and oxymethazolin stimulation.

For the next assay, the system named is GsPCR signaling. Briefly: CDS response to GsPCR stimulation (isoproterenol, desmopressin) in MC3T3-E1 cells.
Description: as §1
Assuming that inhibition of Gi protein and phosphorylation of Gs protein are responsible for the increased GsPCR signaling associated with rOPN, the next experiments aimed to determine the contribution of each parameter. For this purpose, cells were treated with PTX to mimic disruption action of rOPN and compared to cells treated with rOPN alone or in combination with Src inhibitor (PP2) to prevent tyrosine phosphorylation. […] This modest difference was abolished by Src inhibitor (PP2). Similar observations were noted when cells were stimulated with desmopressin.

The mark [2] stands for this setting: rOPN-treated vs PBS-treated cells.

Consider “rOPN: exogenous recombinant osteopontin (R&D systems)”, for which the “amount of Gi protein isoforms in the β1 integrin precipitates” value in assay [1] (following rOPN treatment) was “elevated”. Besides, the “relative amount of Gi isoforms immunoprecipitated with MO or MT2 receptor” value in assay [1] (setting [2]) is on record as “reduced”. Also, the “phosphorylated serine and tyrosine residues in Gi precipitates (band density)” value in the assay on Gi1, Gi2, Gi3 proteins is given as “higher”. Further, in the assay on Gs protein (rOPN treatment), the “presence of Gs proteins in the immunoprecipitates of MT2 and MO receptors” value is reported as “enhances”. For the same substance, in the assay on Gs protein (setting [2]), the “Gs protein immunoprecipitates probed with anti-tyrosine antibody” value is “higher intensity”. Besides, the “integrated response to DAMGO and oxymethazolin after rOPN treatment” value in the assay on GiPCR signaling is “decrease in the integrated response in a concentration-dependent manner”. In addition, the “response to isoproterenol (similar with desmopressin)” value in the assay on GsPCR signaling (rOPN vs PBS-treated cells) was “higher”. The “greater responsiveness to isoproterenol stimulation than PTX-treated cells” value in the assay with GsPCR signaling (rOPN-treated vs PTX-treated cells) came out at 30%.

Values taken from patent US20160368992A1, “A METHOD OF INCREASING GIPCR SIGNALIZATION IN THE CELLS OF A SCOLIOTIC SUBJECT” (CHU SAINTE-JUSTINE, priority 2013, published 2016).
